Results published in patent US20240041042A1, “1-(PYRIDYL)-5-AZINYLPYRAZOLE DERIVATIVES, AND THEIR USE FOR CONTROL OF UNDESIRED PLANT GROWTH” (Bayer Aktiengesellschaft, priority 2020, published 2024).
One block for each compound: values may come before it.

Tests used:
Format in all cases: in vivo
[1] = tested on: Pharbitis purpurea (PHBPU); experiment: Pre-emergence herbicidal action against PHBPU; settings: dosage 320 g/ha
In short: (§1)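 Read-out is visual percent damage relative to untreated pots, with 100% meaning dead plants and 0% meaning no difference, assessed roughly three weeks after treatment. Compounds were applied pre-emergence to the covering soil at up to 320 g/ha.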

[2] = tested on: Amaranthus retroflexus (AMARE); experiment: Pre-emergence herbicidal action against AMARE; settings: visual scoring after about 3 weeks vs untreated controls
In short: as §1

[3] = tested on: Alopecurus myosuroides (ALOMY); experiment: Post-emergence herbicidal action against ALOMY; settings: visual rating about 3 weeks after treatment vs untreated controls (100% = plants have died, 0% = like control plants)
In short: (§2)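 Post-emergence greenhouse spray, one-leaf stage, 600 l/ha water plus 0.5% additive; WP or EC formulations; application rates 320 g/ha or lower. Visual % damage vs untreated controls at ~3 weeks.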

[4] = tested on: Polygonum convolvulus (POLCO); experiment: Pre-emergence herbicidal action against POLCO
In short: as §1

[5] = tested on: Alopecurus myosuroides (ALOMY); experiment: Pre-emergence herbicidal action against ALOMY; settings: scored visually after about 3 weeks, 100% = plants have died
In short: as §1

[6] = tested on: Pharbitis purpurea (PHBPU); experiment: Post-emergence herbicidal action against PHBPU
In short: as §2

[7] = tested on: Verconica persica (VERPE); experiment: Pre-emergence herbicidal action against VERPE
In short: as §1

[8] = tested on: Amaranthus retroflexus (AMARE); experiment: Post-emergence herbicidal action against AMARE
In short: as §2

Avena fatua (AVEFA) [9] = experiment: Pre-emergence herbicidal action against AVEFA; settings: visual scoring after about 3 weeks vs untreated controls
In short: as §1

[10] = tested on: Verconica persica (VERPE); experiment: Post-emergence herbicidal action against VERPE
In short: as §2

Avena fatua (AVEFA) [11] = experiment: Post-emergence herbicidal action against AVEFA; settings: 320 g/ha, visual rating about 3 weeks after treatment
In short: as §2

[12] = tested on: Echinochloa crus-galli (ECHCG); experiment: Pre-emergence herbicidal action against ECHCG; settings: dosage 320 g/ha
In short: as §1

Lolium rigidum (LOLRI) [13] = experiment: Pre-emergence herbicidal action against LOLRI
In short: as §1

Viola tricolor (VIOTR) [14] = experiment: Pre-emergence herbicidal action against VIOTR; settings: 320 g/ha, Viola tricolor
In short: as §1

Setaria viridis (SETVI) [15] = experiment: Pre-emergence herbicidal action against SETVI
In short: as §1

Viola tricolor (VIOTR) [16] = experiment: Post-emergence herbicidal action against VIOTR; settings: 320 g/ha
In short: as §2

Lolium rigidum (LOLRI) [17] = experiment: Post-emergence herbicidal action against LOLRI; settings: dosage 320 g/ha
In short: as §2

[18] = tested on: Matricaria inodora (MATIN); experiment: Post-emergence herbicidal action against MATIN
Method: Seeds of monocotyledonous and dicotyledonous weeds and crop plants are placed in sandy loam in plastic or organic planting pots, covered with soil and cultivated in a greenhouse under controlled growth conditions. 2 to 3 weeks after sowing, the test plants are treated at the one-leaf stage. The compounds of the invention, formulated in the form of wettable powders (WP) or as emulsion concentrates (EC), are then sprayed onto the green parts of the plants as aqueous suspension or emulsion with addition of 0.5% additive at a water application rate of 600 l/ha (converted). After the test plants have been kept in the greenhouse under optimum growth conditions for about 3 weeks, the activity of the preparations is rated visually in comparison to untreated controls. For example, 100% activity=the plants have died, 0% activity=like control plants.
Tables B1 to B13 below show the effects of selected compounds of the general formula (I) according to Table 1 on various harmful plants and at an application rate corresponding to 320 g/ha or lower, which were obtained by the experimental procedure mentioned above. The appendices “a”, “b” and “c” give differentiation by dosage used with otherwise the same harmful plants tested.

[19] = tested on: Matricaria inodora (MATIN); experiment: Pre-emergence herbicidal action against MATIN; settings: dosage 320 g/ha
In short: as §1

[20] = tested on: Echinochloa crus-galli (ECHCG); experiment: Post-emergence herbicidal action against ECHCG
In short: as §2

Oryza sativa (ORYSA) = settings: crop plant compatibility, 80 g/ha, effect in comparison to untreated controls
In short: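 Percent effect on the crop was judged by eye against untreated controls, where 0% means like control and 100% means dead plants. Plants had been sprayed post-emergence at the one-leaf stage and then kept under optimum greenhouse conditions for about 3 weeks.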

Setaria viridis (SETVI) [21] = experiment: Post-emergence herbicidal action against SETVI
In short: as §2

[22] = 80 g/ha, visual rating about 3 weeks after treatment vs untreated controls (100% = plants have died, 0% = like control plants)
[23] = 320 g/ha, visual rating about 3 weeks after treatment

Post-emergence action against ORYSA in % (Oryza sativa (ORYSA)): 0%
Compound: C=C(COC(=O)COc1nn(-c2ccccn2)c(-c2ccc(F)nc2)c1Br)C(=O)OC [Example I-370]
Pre-emergence action against PHBPU in % [1]: 90% | Pre-emergence action against AMARE in % ([2]; 80 g/ha): 100% | Pre-emergence action against AMARE in % ([2]; 320 g/ha): 100% | Post-emergence action against ALOMY in % ([3]; 80 g/ha): 100% | Post-emergence action against ALOMY in % ([3]; 320 g/ha): 100% | Pre-emergence action against POLCO in % ([4]; dosage 80 g/ha): 80% | Pre-emergence action against POLCO in % ([4]; dosage 320 g/ha): 100% | Pre-emergence action against ALOMY ([5]; 80 g/ha): 80% | Pre-emergence action against ALOMY ([5]; 320 g/ha): 100% | Post-emergence action against PHBPU in % ([6]; dosage 80 g/ha): 80% | Post-emergence action against PHBPU in % ([6]; dosage 320 g/ha): 90% | Pre-emergence action against VERPE in % ([7]; dosage 80 g/ha): 90% | Pre-emergence action against VERPE in % ([7]; dosage 320 g/ha): 100% | Post-emergence action against AMARE in % [8, 22]: 80% | Post-emergence action against AMARE in % [8, 23]: 80% | Pre-emergence action against AVEFA in % (Avena fatua (AVEFA) [9]; 80 g/ha): 90% | Pre-emergence action against AVEFA in % (Avena fatua (AVEFA) [9]; 320 g/ha): 90% | Post-emergence action against VERPE in % ([10]; 320 g/ha, VERPE): 90% | Post-emergence action against VERPE in % ([10]; dosage 80 g/ha): 90% | Post-emergence action against AVEFA in % (Avena fatua (AVEFA) [11]): 90% | Pre-emergence action against ECHCG in % [12]: 100% | Pre-emergence action against LOLRI in % (Lolium rigidum (LOLRI) [13]; dosage 80 g/ha): 90% | Pre-emergence action against LOLRI in % (Lolium rigidum (LOLRI) [13]; dosage 320 g/ha): 100% | Pre-emergence action against VIOTR in % (Viola tricolor (VIOTR) [14]): 100% | Pre-emergence action against SETVI in % (Setaria viridis (SETVI) [15]; dosage 80 g/ha): 100% | Pre-emergence action against SETVI in % (Setaria viridis (SETVI) [15]; dosage 320 g/ha): 100% | Post-emergence action against VIOTR in % (Viola tricolor (VIOTR) [16]): 80% | Post-emergence action against LOLRI in % (Lolium rigidum (LOLRI) [17]): 90% | Post-emergence action against MATIN in % ([18]; dosage 80 g/ha): 80% | Post-emergence action against MATIN in % ([18]; dosage 320 g/ha): 80% | Pre-emergence action against MATIN in % [19]: 100% | Post-emergence action against ECHCG in % ([20]; dosage 80 g/ha): 80% | Post-emergence action against ECHCG in % ([20]; dosage 320 g/ha): 80% | Post-emergence action against SETVI in % (Setaria viridis (SETVI) [21]; dosage 80 g/ha): 80% | Post-emergence action against SETVI in % (Setaria viridis (SETVI) [21]; dosage 320 g/ha): 80%

Post-emergence action against ORYSA in % (Oryza sativa (ORYSA)): 10%
Compound: CS(=O)(=O)CCOC(=O)COc1nn(-c2ccccn2)c(-c2ccc(F)nc2)c1Br [Example I-313]
Pre-emergence action against PHBPU in % [1]: 80% | Pre-emergence action against AMARE in % ([2]; 80 g/ha): 90% | Pre-emergence action against AMARE in % ([2]; 320 g/ha): 100% | Post-emergence action against ALOMY in % ([3]; 80 g/ha): 90% | Post-emergence action against ALOMY in % ([3]; 320 g/ha): 90% | Pre-emergence action against POLCO in % ([4]; dosage 80 g/ha): 80% | Pre-emergence action against POLCO in % ([4]; dosage 320 g/ha): 80% | Pre-emergence action against ALOMY ([5]; 80 g/ha): 90% | Pre-emergence action against ALOMY ([5]; 320 g/ha): 100% | Post-emergence action against PHBPU in % ([6]; dosage 80 g/ha): 90% | Post-emergence action against PHBPU in % ([6]; dosage 320 g/ha): 90% | Pre-emergence action against VERPE in % ([7]; dosage 80 g/ha): 80% | Pre-emergence action against VERPE in % ([7]; dosage 320 g/ha): 90% | Post-emergence action against AMARE in % [8, 22]: 80% | Post-emergence action against AMARE in % [8, 23]: 90% | Pre-emergence action against AVEFA in % (Avena fatua (AVEFA) [9]; 320 g/ha): 90% | Post-emergence action against VERPE in % ([10]; 320 g/ha, VERPE): 90% | Post-emergence action against VERPE in % ([10]; dosage 80 g/ha): 90% | Post-emergence action against AVEFA in % (Avena fatua (AVEFA) [11]): 80% | Pre-emergence action against ECHCG in % [12]: 100% | Pre-emergence action against LOLRI in % (Lolium rigidum (LOLRI) [13]; dosage 320 g/ha): 100% | Pre-emergence action against VIOTR in % (Viola tricolor (VIOTR) [14]): 90% | Pre-emergence action against SETVI in % (Setaria viridis (SETVI) [15]; dosage 80 g/ha): 100% | Pre-emergence action against SETVI in % (Setaria viridis (SETVI) [15]; dosage 320 g/ha): 100% | Post-emergence action against VIOTR in % (Viola tricolor (VIOTR) [16]): 80% | Post-emergence action against LOLRI in % (Lolium rigidum (LOLRI) [17]): 90% | Post-emergence action against MATIN in % ([18]; dosage 80 g/ha): 80% | Post-emergence action against MATIN in % ([18]; dosage 320 g/ha): 90% | Pre-emergence action against MATIN in % [19]: 90% | Post-emergence action against ECHCG in % ([20]; dosage 320 g/ha): 90% | Post-emergence action against SETVI in % (Setaria viridis (SETVI) [21]; dosage 80 g/ha): 90% | Post-emergence action against SETVI in % (Setaria viridis (SETVI) [21]; dosage 320 g/ha): 90%
